Assay results as given in US4522943A, “Chemical compounds” (Bristol-Myers Company, priority 1982, dated 1985).

Legend:
[1] = in vivo; cited from earlier work
gastric secretion = conditions: in animals, including man; cited from earlier work
histamine H2-receptor = conditions: relative to another H2-antagonist; cited from earlier work
gastric acid secretion [2] = assay: Gastric Antisecretory Activity in the Heidenhain Pouch Dog; assay type: in vivo, female dogs; conditions: for Potency Ratio [cimetidine = 1.0] (INTRAVENOUS) / Potency Ratio [cimetidine = 1.0] (ORAL): relative to cimetidine = 1.0
Description: The dosage of the compounds of this invention will depend not only on such factors as the weight of the patient, but also on the degree of gastric acid inhibition desired and the potency of the particular compound being utilized. The decision as to the particular dosage to be employed is within the discretion of the physician. […] The usual human adult oral dose of cimetidine is 300 mg, given four times a day. The usual human adult starting oral dosages of the compounds of this invention are readily determined from their oral ED50 in this same test. […] Similar calculations may be made for iv dosages. These starting dosages (and the number of times administered per day) may, of course, be varied by titration of the dosage to the particular circumstances of the specific patient. […] The active ingredient will preferably be administered in equal doses from one to four times a day.
(§1) Med Res., 3, 86 (1975). […] Two of the standard animal models for determining gastric antisecretory activity of histamaine H2 -antagonists are the Gastric Fistula Rat and the Heidenhain Pouch Dog.
Determination of Gastric Antisecretory Activity in the Heidenhain Pouch Dog
Prior to surgery, hematology and blood chemistry profiles are obtained and an assessment made as to the general health of selected female dogs. Dogs are vaccinated with Tissue Vax 5 (DHLP-Pitman-Moore) and housed in general animal quarters for four weeks' observation so incipient diseases may become apparent. Dogs are fasted with water ad libitium 24 hours prior to surgery.
Anesthesia is induced with Sodium Pentothal (Abbott) 25-30 mg/kg iv. Subsequent anesthesia is maintained with methoxyflurane (Pitman-Moore). A mid-line linea alba incision from xiphoid to umbilicus provides good exposure and ease of closure. The stomach is pulled up into the operative field, the greater curvature stretched out at multiple points and clamps placed along the selected line of incision. The pouch is made from the corpus of the stomach so that true parietal cell juice is obtained. About 30% of the corpus volume is resected. The cannula is made of light-weight,biologically-inert material such as nylon or Delrin with dimensions and attachments after DeVito and Harkins [J. Appl. Physiol., 14, 138 (1959)]. Post operatively, dogs are medicated with antibiotics and an analgesic. They are allowed 2-3 months for recovery. Experiments are carried out in the following way: Dogs are fasted overnight (~18 hours) with water ad libitum prior to each experiment. The dogs are placed in a sling and a saphenous vein cannulated for drug administration. Histamine as the base (100 μg/kg/hr and chlorpheniramine maleate (0.25 mg/kg/hr) are infused continuously (in a volume of 6 ml/hr) with a Harvard infusion pump.
Ninety minutes' infusion are allowed for the dogs to reach a steady state of acid output. At this time the drug or normal saline (control) is administered concomitantly with the secretagogue in a volume of 0.5 ml/kg over a 30 second period. When oral studies are to be carried out, the drug is administered via gastric gavage in a volume of 5 ml/kg. Infusion of the secretagogue is continued and 15 minute samples of the gastric juice are taken for 4.5 hours. Each sample is measured to the nearest 0.5 ml and titratable acidity is determined by titrating a 1 ml sample to pH 7.0 with 0.2N NaOH, using an Autoburet and an electrometric pH meter (Radiometer). Titratable acid output is calculated in microequivalents by multiplying the volume in milliliters by the acid concentration in milliequivalents per liter.
Results are expressed as percent inhibition relative to control readings. Dose response curves are constructed and ED50 values are calculated by regression analyses. From 3 to 5 dogs are used at each dose level and a minimum of three dosage levels are utilized for determination of a dose response curve.

[3] = peptic ulcer disease, clinical evaluation; cited from earlier work
gastric acid secretion [4] = assay: Gastric Antisecretory Activity in the Gastric Fistula Rat; assay type: in vivo, Male Long Evans rats; conditions: sc, relative to cimetidine = 1.0, 95% confidence limits on following line
Description: as §1
Determination of Gastric Antisecretory Activity in the Gastric Fistula Rat
Male Long Evans rats weighing about 240-260 grams at the time of cannula implantation are used. The design and implantation of the stainless steel cannula into the anterior wall of the fore-stomach are carried out essentially as described by Pare et al. [Laboratory Animal Science, 27, 244 (1977)]. The fistula components are designed and the operative procedure is carried out exactly as described in the above reference. Post operatively the animals are individually housed in solid bottom cages with sawdust and are allowed food and water ad libitum throughout the entire recovery period. Animals are not used for test purposes for at least 15 days after the operative procedure.
The animals are fasted but allowed water ad libitum for 20 hours before the testing procedure is to begin. […]
Titratable acid output is calculated in microequivalents by multiplying the volume in milliliters by the acid concentration in milliequivalents per liter.
Results are expressed as percent inhibition relative to control readings. Dose response curves are constructed and ED50 values are calculated by regression analyses. […]

Question: Which results are given for `CNC(=S)NCCCCc1cnc[nH]1` [Burimamide]?
Answer: oral absorption [1]: poor; inhibits gastric secretion (gastric secretion): inhibits gastric secretion

Question: For `CNC(=NC#N)NCCSCc1nc[nH]c1C` [Cimetidine], which “H2-antagonist potency / effectiveness” value (histamine H2-receptor) is on record?
Answer: as effective an H2 -antagonist as metiamide

Question: What about the “ED50 (ORAL)” value (gastric acid secretion [2]; oral, histamine-stimulated, 95% confidence limits on following line) of the same compound?
Answer: 3.29 µmol/kg

Question: And the clinical effectiveness [3]?
Answer: effective therapeutic agent in the treatment of peptic ulcer disease

Question: Which results are given for `Nc1c(NCCCOc2cccc(CN3CCCCC3)c2)c(=O)c1=O` [Example 1, 1-Amino-2-[3-(3-piperidinomethylphenoxy)propylamino]cyclobutene-3,4-dione]?
Answer: Potency Ratio [cimetidine = 1.0] (INTRAVENOUS) (gastric acid secretion [2]): 87; Potency Ratio [cimetidine = 1.0] (ORAL) (gastric acid secretion [2]; oral): 25

Question: With `CN(C)Cc1ccc(CSCCNc2c(N)c(=O)c2=O)o1` [Example 2, 1-Amino-2-{2-[(5-dimethylaminomethyl-2-furyl)metylthio]ethylamino}cyclobutene-3,4-dione] as the compound, how does the “Potency Ratio [cimetidine = 1.0] (INTRAVENOUS)” value (“Potency Ratio … (INTRAVENOUS)” below) (gastric acid secretion [2]) read?
Answer: ~ 20

Question: Which “Potency Ratio [cimetidine = 1.0]” value (gastric acid secretion [4]) does the source give for `CN(C)Cc1ccc(CSCCNc2c(N)c(=O)c2=O)s1` [Example 3, 1-Amino-2-{2-[(5-dimethylaminomethyl-2-thienyl)methylthio]ethylamino}cyclobutene-3,4-dione] here?
Answer: ~ 1

Question: Which “Potency Ratio … (INTRAVENOUS)” value (gastric acid secretion [2]) does the source give for `CN(C)Cc1cccc(OCCCNc2c(N)c(=O)c2=O)c1` [Example 9, 1-Amino-2-[3-(3-dimethylaminomethylphenoxy)propylamino]cyclobutene-3,4-dion] here?
Answer: ~ 40

Question: And the “Potency Ratio [cimetidine = 1.0] (ORAL)” value (gastric acid secretion [2]; oral)?
Answer: ~ 20

Question: For `Nc1c(NCCCOc2cccc(CN3CCCCCC3)c2)c(=O)c1=O` [Example 10i, 1-amino-2-[3-(3-hexamethyleneiminomethylphenoxy)propylamino]cyclobutene-3,4-dione], which “Potency Ratio … (INTRAVENOUS)” value (gastric acid secretion [2]) is on record?
Answer: > 40

Question: Which “H2-antagonist potency / effectiveness” value (histamine H2-receptor) does the source give for `CNC(=S)NCCSCc1nc[nH]c1C` [Metiamide] here?
Answer: more potent than burimamide
